Row | SMILES | melting point [°C]
1 | CCOC(=O)c1ccccc1CCc1ccc2oc(-c3nc(C(C)(C)C)cs3)cc2c1 | 75 to 77
2 | C[C@@H](NC(=O)[C@@H](NCc1nccn1C)C(C)(C)C)C(C)(C)C | 131 to 132
3 | Cn1c(O)nc2cc(Cn3ccnc3)ccc21 | 207
4 | COC(=O)/C=C/C#Cc1cccc(S(=O)(=O)Nc2ccccc2)c1 | 134 to 136
5 | Cc1ccc2c(=O)c(OC(=O)c3ccccc3)cn(C)c2c1 | 200 to 202
6 | COc1cccc2c(=O)n(C(C)(C)C(=O)OCC(=O)c3ccccc3)c(=O)[nH]c12 | 132 to 133
7 | COC(=O)c1ccccc1N(C)C(=O)c1ccc(OC)nc1 | 68 to 70
8 | FC(F)(F)c1cccc(C2=CCN(CCc3ccc(-c4ccccc4)cc3)CC2)c1 | 114 to 116
9 | N#CC(C#N)=C1N(CCCN2CCCC2)CCN1CCN1CCCC1 | 70 to 71
10 | O=C(C1CCCCC1)N1CC(=O)N2CCCc3ccccc3C2C1 (configuration not stated) | 187 to 190
11 | O=C(OCCN1CCOCC1)c1cn2c(n1)COc1ccccc1-2 | 142 to 143
12 | C=CC(=O)Oc1ccc(N2C(=O)C(=C(C)C)/C(=C(/C)c3c(C)n(C)c4ccccc34)C2=O)cc1 | 172 to 174
13 | COC(=O)c1cccc(C2C(C#N)=C(N)Oc3c2ccc2cccnc32)c1 (configuration not stated) | 198 to 200
14 | Cc1nn(-c2c(Cl)cc(C(F)(F)F)cc2Cl)nc1CN(C)C | 67 to 68
15 | NC(=O)CNC(=O)c1cccc(-c2cccc3cc(Cc4cccc(C(F)(F)F)c4)sc23)c1 | 147 to 148
16 | O=CN1CCN(c2cc3c(cc2F)c(=O)c(C(=O)O)c2sccn23)CC1 | 335 to 336
17 | CCc1cc(Cl)cc(S(N)(=O)=O)c1N | 134 to 135
18 | COC(=O)c1ccc(OC)c(NC(=NCl)c2ccc(Cl)cc2)c1 | 120
19 | CCOC(=O)CCNC(=O)NC1CCN(c2ccc(C(=N)NOC(=O)OCC(Cl)(Cl)Cl)cc2)C1=O (configuration not stated) | 196 to 198
20 | COc1cccc(CNC(=O)c2nc3ccccc3c(=O)[nH]2)c1 | 186 to 189
21 | CCCCCCCCCCCCCCCCNc1ccc(C(=O)OC2COC(c3ccccc3)OC2)cc1 (configuration not stated) | 115 to 117
22 | COc1nc(C(F)(F)F)cc(=O)n1-c1cc(C(=O)OC(C)C)c(Cl)cc1F | 121 to 123
23 | CCOc1c(C)c(NC(=O)CC(C)(C)C)c(C)c2c1OCC2c1ccc(C(C)C)cc1 (configuration not stated) | 174 to 175
24 | CC(C)(C)c1cc(C(=O)c2ccc(C#N)cc2)cc(C(C)(C)C)c1O | 166 to 168
25 | O=C(OCC1OC(n2cnc3c(NCC(c4ccccc4)c4ccccc4)ncnc32)C(OC(=O)c2ccccc2)C1OC(=O)c1ccccc1)c1ccccc1 (configuration not stated) | 60 to 75
26 | COc1ccc2[nH]cc(CCCCN3CCN(c4ccc5oc(CO)cc5c4)CC3)c2c1 | 159

Row | SMILES | melting point [°C]
27 | Nc1ccc2ccc(O)cc2c1 | 186 to 188
28 | Nc1cc(SC(F)(F)F)cc(Br)c1N | 60 to 61
29 | CC1(N)CN(c2c(F)cc3c(=O)c4c(=O)[nH]sc4n(C4CC4)c3c2F)C1 | 294 to 300
30 | CC(C(N)=O)c1ccc2c(c1)CCc1ccccc1C2=O (configuration not stated) | 175
31 | CCOC(=O)c1cnc2c(OC)cccc2c1Nc1ccccc1 | 120 to 121
32 | CC12C=CCC1C1CCC3CC(=O)CCC3C1CC2 (configuration not stated) | 51 to 54
33 | CC(Oc1ccc2nc(N)sc2c1)c1cc(F)cc(F)c1 (configuration not stated) | 132
34 | COC1=C(C(=O)NNC(=O)Cc2ccc(F)cc2)CN(C(C)C)C1=O | 157 to 158
35 | CCOC(=O)NC1=NCC(c2ccc(OCC)cc2)N1C (configuration not stated) | 115 to 116
36 | O=C1NCCc2c(O)cccc21 | 195 to 198
37 | O=c1ccn(CCO)c(C(O)c2ccccc2F)c1OCc1ccccc1 (configuration not stated) | 164 to 166
38 | CCCCCCCCCCCCCCCCCC(=O)NC(C)Cc1cccc(C(F)(F)F)c1 (configuration not stated) | 74 to 76
39 | CCCCOC1OC(CO)C(O)C(O)(N(CC2CCCCC2)C(=O)N(CCCl)N=O)C1O (configuration not stated) | 75 to 77
40 | CSC1=Nc2ccc(C(=O)c3cccnc3)cc2CN1 | 156
41 | C=C(Oc1cc(-n2c(=O)cc(C(F)(F)F)[nH]c2=O)c(F)cc1Cl)C(=O)OC | 171 to 173
42 | Cc1nc(NC(=O)NC(=O)c2c(Cl)cccc2Cl)cnc1-c1ccc(Br)cc1 | 225 to 227
43 | CCCC(=O)C(=CNc1cscc1OC)C(=O)OCC | 89 to 91
44 | CC1(C(=O)O)CCCCC1O (configuration not stated) | 97
45 | CCC(CC)/C(N)=C(\C#N)C(=O)Cl | 102
46 | CCC(C)N1CCc2c(C(=O)O)nc3c(C#N)cnn3c21 (configuration not stated) | 191 to 192
47 | COc1ccc2[nH]cc(CC3=CCCN(CCCC(O)c4ccc(F)cc4)C3)c2c1 (configuration not stated) | 160 to 170
48 | C=Cc1[nH]c(=O)c2c(ccc3nc(Nc4c(Cl)cccc4Cl)n(C)c32)c1C | > 300
49 | Cc1cc(-c2ccc(C(=N)NO)o2)ccc1Br | 239
50 | CCOC(=O)c1cc(O)ccc1O | 81 to 82
51 | OCCOc1ccc(O)c(Cl)c1 | 76 to 82
52 | CC1(C)CCC(=O)Nc2cc(OCCCCN3CCN(c4cccc(Cl)c4Cl)CC3)ccc21 | 106 to 108

Row | SMILES | melting point [°C]
53 | CC(=O)NC(=O)NCC(=O)N1CC1C#N (configuration not stated) | 118 to 122
54 | O=C(CCc1cccc2c1NC(=O)CO2)CCc1cccc2c1NC(=O)CO2 | 183 to 185
55 | CC(C)c1nn2ccccc2c1C(=O)C1CC1 | 72
56 | O=C(O)c1ccncc1C(=O)c1cc(F)ccc1F | 214 to 216
57 | O=C(O)CC1CCCCc2c1c1cc(F)ccc1n2Cc1ccc(Cl)cc1 (configuration not stated) | 138 to 139
58 | Cc1ccc(C(=O)Nc2ccccc2O)c(F)c1 | 195 to 197
59 | NC(=O)CCCC1(c2ccccc2)CC(O)=CC(=O)O1 (configuration not stated) | 51 to 54
60 | CCCCCCCC(=O)NCCCCCOS(C)(=O)=O | 67 to 68
61 | CC#CCN(C)c1ccc(OC23CC4CC(CC(C4)C2)C3)cc1 | 180 to 181
62 | CS(=O)(=O)c1ccc(-c2cc(CCCC(=O)O)nn2-c2ccc(C(F)(F)F)cc2)cc1 | 155 to 156
63 | CC(C)NC(=O)C1(C(C)C)CCCC1C (configuration not stated) | 90.5 to 91.5
64 | Clc1ccc(I)c(CBr)c1 | 75 to 79
65 | c1cc(NC2=NCCN2)ccc1Cc1ccc(N2CCOCC2)cc1 | 177 to 179
66 | O=C(Nc1ccccc1)c1ccc(F)c2c1CC(N(CCCc1c[nH]c3ccc(F)cc13)C1CCC1)CO2 (configuration not stated) | 136
67 | O=C(CCCl)Nc1ccc2c(c1NC(=O)CCCl)C(=O)c1ccccc1C2=O | 179 to 180
68 | C=CCn1c2ccc(OC)cc2c2c3c(c(-c4ccccc4Cl)cc21)C(=O)N(Cc1ccc(OC)cc1OC)C3=O | 171 to 173
69 | NC(=O)c1cc(-c2cccc3cc(Cc4cccc(C(F)(F)F)c4)sc23)ccc1F | 169 to 170
70 | CC1(C)CCc2c(-c3ccco3)nc3sc4c(NCc5ccccn5)ncnc4c3c2C1 | 233
71 | O=C1CCCC(=O)C1c1ccccc1Cl | 148 to 149
72 | CC(=O)c1c(-c2ccnc3ccccc23)[nH]c(-c2ccnc3ccccc23)c1C | > 260
73 | Cc1cnc2c(c1)CCCC2(C)C(N)=S (configuration not stated) | 164
74 | Cc1cc(OCC(=O)NCc2ccccc2)ccc1N1CC(=O)NS1(=O)=O | 70 to 90
75 | COc1ccc2cc(-c3cnc(-c4cn(C)c5ccccc45)o3)ccc2c1 | 187 to 189
76 | O=P(O)(O)CCCCCCCCCCCC(F)(F)C(F)(F)C(F)(F)C(F)(F)F | 93 to 96
77 | O=c1[nH]c2cc(NO)ccc2c(=O)n1CCCCN1CC=C(c2ccccc2)CC1 | 187 to 189
78 | CC1CC2(NC(=O)NC2=O)c2cc(F)ccc2O1 (configuration not stated) | 233 to 235

Row | SMILES | melting point [°C]
79 | COC1(c2cc(F)cc(S(=O)(=O)c3ccc4c(c3)OCCC4=NO)c2)CCOCC1 | 209 to 210
80 | O=Cc1cncn1-c1ccc(F)cc1 | 131 to 133
81 | Cn1cnc(COc2nn3c(-c4ccccc4)nnc3cc2-c2ccco2)n1 | 257 to 259
82 | COC(=O)C1N=C(c2ccccc2)c2cc(Cl)ccc2NC1=O (configuration not stated) | 222
83 | CCOC(=O)Cc1ccc(OCc2nc(-c3ccccc3)oc2C)c(OC)c1 | 86 to 87
84 | COC(=O)C1Cc2c(ncn2Cc2ccc(N)c(C)c2)CN1C(=O)C(c1ccccc1)c1ccccc1 (configuration not stated) | 182 to 188
85 | CC(C)(C)c1ccc(/C=C/C(=O)Nc2ccc3c(c2)CCO3)cc1 | 175 to 176
86 | c1ccc(-c2cncc(CN3CCN(c4ccccc4)CC3)c2)cc1 | 83 to 85
87 | O=c1c(C2=Nc3ccccc3S(=O)(=O)N2)c(O)c2ccccc2n1CCCCO | 238 to 240
88 | COc1cc(CN2CCN(C(=O)C3=Cc4ccc(OC(=O)c5ccccc5)cc4CC3)CC2)cc(OC)c1OC | 117 to 119
89 | CCCc1nc(-n2cccc2)c(CO)[nH]1 | 155 to 158
90 | Cn1cc(-c2cc3cccnc3[nH]2)c2cc(C(=O)NC(CO)(CO)CO)ccc21 | 205 to 206
91 | CC(O)Cc1nc(Cl)ccc1N (configuration not stated) | 118 to 121
92 | OCc1conc1-c1ccc(C(F)(F)F)cc1 | 70 to 71
93 | CN1CCC(C2(O)c3ccccc3Oc3ccc(F)cc32)CC1 (configuration not stated) | 193 to 200
94 | O=C(COc1cccc(C(F)(F)F)c1)N[C@@H](Cc1ccccc1)C(=O)CSCc1ccco1 | 72 to 80
95 | COc1cc2c(cc1-c1cc(F)ccc1F)NC(=O)CC(c1cccc(-n3ccnn3)c1)=N2 | 241
96 | CNC(=O)C(Cc1c[nH]c2ccccc12)NC(=O)Nc1n[nH]c(=S)s1 (configuration not stated) | 205 to 210
97 | C=CCN(C)c1nc(Cc2ccc(OC)c(OC)c2)nc2sc(C#N)c(C)c12 | 98 to 100
98 | Cc1cnc(N)cc1C(c1cc(F)ccc1F)S(=O)(=O)c1ccc(Cl)cc1 (configuration not stated) | 188 to 189
99 | Cc1c(/C=C/C(=O)N(C)C)ncn1C(c1ccccc1)(c1ccccc1)c1ccccc1 | 195 to 197
100 | COc1ccc(-c2c3c(cc4ccc(OC)c(OC)c24)C(=O)NC3=O)cc1 | 288 to 290
101 | CCOc1nn(Cc2ccc(OCc3nc(-c4ccco4)oc3C)c(OC)c2)cc1CCC(=O)O | 133 to 134
102 | N#Cc1cccc2c(N)c([N+](=O)[O-])ccc12 | 260 to 262

Reference: a melting point compilation (Tetko et al.; mined from patent text by program, amines drawn as free bases though some values may be those of a salt)
